Source: patent US8207217B2 (Apotex Technologies Inc, priority 2007, dated 2012)

Legend:
[1] = oral drug in traditional tablet or capsule form; cited from earlier work
[2] = Speciation plot / pH of aqueous solution (Hyperquad Simulation & Speciation, experimentally determined pKas); assay type: physicochemical
From the text: We have determined that an advantageous salt for use in pharmaceutical preparations is the mono-sodium salt of the D-isoglutamyl-D-tryptophan, which can be formally represented by formula III, which is the predominant pharmaceutical salt at neutral pH. This takes advantage of the fact that the amino acid is a zwitterion. We have determined that the mono-sodium salt as shown in formula III is the most preferred salt in pharmaceutical preparations. The di-sodium salt of formula II is the predominant species at a pH of about 12 or above. A solution of di-sodium salt in water will have a pH of about 12 and therefore it is unsuitable for use in a liquid formulation. Adjustment of a solution of the di-sodium salt back to a pH of about 7 to about 7.4, in fact produces the mono-sodium salt as the predominant species in solution.
FIG. 1 is a speciation plot of the dipeptide H-D-iGlu-D-Trp-OH and its salt calculated with the software Hyperquad Simulation & Speciation using experimentally determined pKas of the acid and amine groups. LH2=H-D-iGlu-D-Trp-OH in diacid form represented by a compound of formula I, LH=mono carboxylic acid salt such as the mono-sodium salt represented by a compound of formula III, L=dicarboxylic acid salt such as the di-sodium salt represented by a compound of formula II, LH3=acid addition salt of H-D-iGlu-D-Trp-OH such as the mono hydrochloride salt of a compound of formula I wherein the NH2 is protonated. The X axis provides the pH of the solution. The Y axis reports the molar fraction of the species present at a particular pH. Note: % formation relative to L is the default terminology of the software. The concentration of 0.5M is used to reflect the equivalency of 1 gm of thymodepressin in 6 ml water during isolation purposes.
Depending on its concentration, the pH of a solution of di-sodium salt is more than about 8.2. A solution containing 100% of the di-sodium salt has pH of greater than about 11.5 as per speciation plot (FIG. 1). The high pH is unsuitable for dosing to human as a solution. pH adjustment from about 7.2 to about 7.4 with mineral acid introduces additional salt, for example, sodium chloride into the formulation.

[3] = Solubility in water; assay type: physicochemical
Description: A solution of D-isoglutamyl-D-tryptophan and sodium hydroxide in water is prepared by adding solid D-isoglutamyl-D-tryptophan to sodium hydroxide solution. […] Sodium hydroxide is chosen based on the convenience in obtaining sodium hydroxide solution, however other sodium bases such as sodium hydride, sodium carbonate, sodium bicarbonate can be used. These chemicals are obvious chemical equivalents to sodium hydroxide for step (a) of the process. In step (b), the solution is filtered to remove any particulates prior to proceeding to step (c).

[4] = Hygroscopicity of the solid in air; assay type: physicochemical
Description: A powdery or amorphous form of a compound, intended for pharmaceutical use may give rise to manufacturing problems due to bulk density issues, hygroscopicity and variable water content that cannot be corrected by vacuum drying. D-isoglutamyl-D-tryptophan is a dipeptide and the drying of an amorphous form at elevated temperature, for example, 80-100° C. under vacuum is not recommended. Thus, there are serious difficulties experienced during the purification of the di-sodium salt of D-isoglutamyl-D-tryptophan and obtaining the pure di-sodium salt on a manufacturing scale. Further, as discussed above, there is no published procedure for its preparation.

Row | Molecule | oral bioavailability [1] | fraction present in the mono-sodium salt form ([2]; in water at a pH of about 7.0 to about 7.4, 0.5M) | solubility in water [3] [mg per ml] | behaviour of the freeze-dried solid in air ([4]; freeze-dried) | hygroscopicity ([4]; solid form) | pH of a solution containing 100% of the di-sodium salt ([2]; as per speciation plot (FIG. 1)) | pH of a solution ([2]; depending on its concentration) | pH of a solution in water ([2]; solution of di-sodium salt in water)
1 | N[C@H](CCC(=O)N[C@H](Cc1c[nH]c2ccccc12)C(=O)O)C(=O)O [D-isoglutamyl-D-tryptophan] | not bioavailable | about 100% | < 20 | – | – | – | – | –
2 | di-sodium salt of D-isoglutamyl-D-tryptophan | – | – | – | turning into a gel in a matter of minutes in air | extremely hygroscopic | greater than 11.5 | more than 8.2 | about 12
